Laboratory results reported in patent US20230365546A1, “5-SUBSTITUTED INDOLE 3-AMIDE DERIVATIVES, PREPARATION METHOD AND USE THEREOF” (ORIGIANT PHARMACEUTICAL CO., LTD, priority 2020, published 2023).

Legend:
HT-29 cells = experiment: Protection against programmed necrosis of HT-29 cells (TNF α/Smac mimetic/Z-VAD-FMK, CCK8); assay type: cell-based; conditions: Homo sapiens, TNF α/Smac mimetic/Z-VAD-FMK induced 24 h, CCK8, read-out: HT-29 (EC50)
Method: In vitro protection against programmed necrosis of HT-29 cells was conducted by ourselves.
DMEM medium was purchased from Gibco Inc., penicillin and streptomycin were purchased from HyClone Inc., TNF α was purchased from PeproTech Inc., Smac mimetic and Z-VAD-FMK were purchased from Selleck Inc., CCK8 was purchased from Medchem Express Inc.
HT-29 cells (colon cancer cells) were cultured in DMEM+10% FBS+Penicillin/Streptomycin medium. During the experiments, HT-29 cells in logarithmic growth phase were harvested, seeded in a 96-well plate at specific numbers per well (typically 8×10^3 cells/well of adherent cells) and cultured overnight in a 37° C., 5% CO2 cell culture incubator. The next day, the compounds to be tested were diluted with culture medium to the corresponding concentrations and added into the corresponding wells of a 96-well plate, with 3 replicate wells for each sample, and a Vehicle control group and a blank Control group containing only culture medium were set at the same time. […] The absorbance was measured at 495 nm wavelength using a microplate reader, and the protection rate of the drug on the cells necrosis was calculated according to the following formula:
Protection rate of cell necrosis=[(X−C0)/(C−C0)]×100%
Wherein, C, C0, and X represent the mean absorbance values of the Vehicle control group, Blank control group and Drug treatment group, respectively.

RIPK1 = RIPK1 (Homo sapiens (Human), UniProt Q13546); experiment: In vitro kinase assay (Eurofins Kinase Profiler), IC50; assay type: biochemical; conditions: 0.001-10 μM, read-out: RIPK 1 (IC50)
Sequence of RIPK1 (Q13546 whole entry): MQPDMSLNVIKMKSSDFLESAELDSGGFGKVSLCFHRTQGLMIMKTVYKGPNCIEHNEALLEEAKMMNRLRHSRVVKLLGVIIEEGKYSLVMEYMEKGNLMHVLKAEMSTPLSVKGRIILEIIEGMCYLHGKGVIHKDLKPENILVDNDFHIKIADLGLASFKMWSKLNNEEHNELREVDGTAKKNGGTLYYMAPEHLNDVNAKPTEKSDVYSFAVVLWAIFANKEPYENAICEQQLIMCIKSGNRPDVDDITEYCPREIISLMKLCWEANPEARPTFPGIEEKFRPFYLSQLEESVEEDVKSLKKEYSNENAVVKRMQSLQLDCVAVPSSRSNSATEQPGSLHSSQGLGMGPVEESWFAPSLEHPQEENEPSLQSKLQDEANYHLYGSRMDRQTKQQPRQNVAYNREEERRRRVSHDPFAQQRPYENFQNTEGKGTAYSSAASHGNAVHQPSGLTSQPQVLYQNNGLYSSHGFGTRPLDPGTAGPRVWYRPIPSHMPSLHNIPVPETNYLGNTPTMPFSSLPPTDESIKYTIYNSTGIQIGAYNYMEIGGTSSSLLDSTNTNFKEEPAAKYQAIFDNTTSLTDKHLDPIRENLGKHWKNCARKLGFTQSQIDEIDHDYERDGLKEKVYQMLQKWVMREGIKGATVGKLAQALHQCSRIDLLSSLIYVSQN

SMILES	EC50 (HT-29 cells)	IC50 (RIPK1)
CC(C)C(=O)Nc1nc2cc(-c3ccc4c(c3)c(C(=O)NC(C)c3ccncc3)cn4C)ccn2n1 (centres unmarked) [Compound 139]	10 to 100 nM	10 to 100 nM
CC(C)n1cc(C(=O)N[C@@H](C)c2cccc(F)c2)c2cc(-c3ccn4nc(NC(=O)C5CC5)nc4c3)ccc21 [Compound 150]	1 to 10 nM	10 to 100 nM
C[C@H](NC(=O)c1c[nH]c2ccc(-c3cnc(NC(=O)C4CC4)nc3)cc12)c1cccc(F)c1 [Compound 43]	≥ 1000 nM	≥ 1000 nM
Cn1cc(C(=O)N2CCCC2c2cccc(F)c2)c2cc(-c3ccc4nc(NC(=O)C5CC5)cn4n3)ccc21 (centres unmarked) [Compound 187]	< 1 nM	< 1 nM
C[C@H](NC(=O)c1c[nH]c2ccc(-c3ccc4nc(NC(=O)C5CC5)ncc4c3)cc12)c1cccc(F)c1 [Compound 44]	10 to 100 nM	100 to 1000 nM
C[C@H](NC(=O)c1cn(C)c2ccc(-c3ccn4nc(NC(=O)N5CCNCC5)nc4c3)cc12)c1cccc(F)c1 [Compound 178]	1 to 10 nM	1 to 10 nM
CCn1cc(C(=O)N2CCC[C@H]2c2ccc(F)cc2)c2cc(-c3ccn4nc(NC(=O)[C@@H](C)O)nc4c3)ccc21 [Compound 204]	< 1 nM	10 to 100 nM
COc1ccc([C@H](C)NC(=O)c2cn(C)c3ccc(-c4ccn5nc(NC(=O)C6CC6)nc5c4)cc23)cc1F [Compound 181]	100 to 1000 nM	100 to 1000 nM
C[C@H](NC(=O)c1cn(C)c2ccc(-c3ccn4nc(NC(=O)N5CC[C@@H](O)C5)nc4c3)cc12)c1cccc(F)c1 [Compound 162, N-((S)-1-(3-fluorophenyl)ethyl)-5-(2-((R)-3-hydroxypyrrolidine-1-carboxamido)-[1,2,4]triazolo[1,5-a]pyridin-7-yl)-1-methyl-1H-indole-3-carboxamide]	10 to 100 nM	10 to 100 nM
O=C(NCc1cc(F)ccc1F)c1c[nH]c2ccc(-c3ccc4nc(NC(=O)C5CC5)sc4c3)cc12 [Compound 25]	< 1 nM	10 to 100 nM
O=C(NCc1cc(C(F)(F)F)cc(C(F)(F)F)c1)c1c[nH]c2ccc(-c3ccc4nc(NC(=O)C5CC5)sc4c3)cc12 [Compound 5]	≥ 1000 nM	100 to 1000 nM
C[C@H](NC(=O)c1cn(C)c2ccc(-c3ccn4nc(NC(=O)[C@H]5CCCN5)nc4c3)cc12)c1cccc(F)c1 [Compound 179]	< 1 nM	< 1 nM
O=C(NCc1cccc(C(F)(F)F)c1)c1c[nH]c2ccc(-c3ccc4nc(NC(=O)C5CC5)sc4c3)cc12 [Compound 8]	1 to 10 nM	10 to 100 nM
C[C@H](NC(=O)c1n[nH]c2ccc(-c3ccc4nc(NC(=O)C5CC5)sc4c3)cc12)c1cccc(F)c1 [Compound 59]	1 to 10 nM	10 to 100 nM
[2H]C([2H])([2H])n1cc(C(=O)N[C@H](c2ccc(F)cc2)C2CC2)c2cc(-c3ccn4nc(NC(=O)CN(C)C)nc4c3)ccc21 [Compound 207]	1 to 10 nM	100 to 1000 nM
CC(C)C(=O)Nc1nc2cc(-c3ccc4c(c3)c(C(=O)N[C@H]3CCCc5ccccc53)cn4C)ccn2n1 [Compound 140]	10 to 100 nM	100 to 1000 nM
Cc1cccc(C2CCCN2C(=O)c2cn(C)c3ccc(-c4ccn5nc(NC(=O)C6CC6)nc5c4)cc23)c1 (centres unmarked) [Compound 189]	100 to 1000 nM	100 to 1000 nM
Nc1ncnn2c(-c3ccc4[nH]nc(C(=O)NCCc5cccc(F)c5)c4c3)ccc12 [Compound 102]	100 to 1000 nM	100 to 1000 nM
C[C@H](NC(=O)c1cn(C)c2ccc(-c3ccc4c(NC(=O)C5CC5)n[nH]c4c3)cc12)c1cccc(F)c1 [Compound 104]	< 1 nM	1 to 10 nM
COCC(=O)Nc1nc2ccc(-c3ccc4[nH]cc(C(=O)NCc5cccc(F)c5)c4c3)cn2n1 [Compound 95]	100 to 1000 nM	100 to 1000 nM

SMILES	EC50 (HT-29 cells)	IC50 (RIPK1)
COc1ccc([C@@H](C)NC(=O)c2c[nH]c3ccc(-c4ccc5nc(NC(=O)C6CC6)sc5c4)cc23)cc1 [Compound 32]	1 to 10 nM	10 to 100 nM
Cn1cc(C(=O)N2C(CO)CC[C@H]2c2ccc(F)cc2)c2cc(-c3ccn4nc(NC(=O)C5CC5)nc4c3)ccc21 (some centres unmarked) [Compound 202]	10 to 100 nM	≥ 1000 nM
CCn1cc(C(=O)N2CCC[C@H]2c2ccc(F)cc2)c2cc(-c3ccn4nc(NC(=O)[C@H](C)OC(C)=O)nc4c3)ccc21 [Compound 198]	1 to 10 nM	10 to 100 nM
C[C@H](NC(=O)c1cn(C)c2ccc(-c3ccn4nc(NC(=O)[C@@H]5C[C@@H]5F)nc4c3)cc12)c1cccc(F)c1 [Compound 144]	< 1 nM	10 to 100 nM
CCN(CC)CC(=O)Nc1nc2cc(-c3ccc4c(c3)c(C(=O)N3CCC[C@H]3c3ccc(F)cc3)cn4C)ccn2n1 [Compound 209]	< 1 nM	1 to 10 nM
CCn1cc(C(=O)N[C@@H](C)c2cccc(F)c2)c2cc(-c3ccn4nc(NC(=O)C5CC5)nc4c3)ccc21 [Compound 149]	< 1 nM	10 to 100 nM
CC(C)C(=O)Nc1nc2cc(-c3ccc4c(c3)c(C(=O)N[C@@H](C)c3ccccc3)cn4C)ccn2n1 [Compound 122]	< 1 nM	1 to 10 nM
COCC(=O)Nc1nc2ccc(-c3ccc4c(c3)c(C(=O)N[C@@H](C)c3cccc(F)c3)cn4C)cn2n1 [Compound 96]	10 to 100 nM	10 to 100 nM
COc1cc(CNC(=O)c2c[nH]c3ccc(-c4ccc5nc(NC(=O)C6CC6)sc5c4)cc23)cc(OC)c1 [Compound 11]	≥ 1000 nM	100 to 1000 nM
O=C(NCc1ccc(N2CCOCC2)cc1)c1c[nH]c2ccc(-c3ccc4nc(NC(=O)C5CC5)sc4c3)cc12 [Compound 93]	≥ 1000 nM	≥ 1000 nM
C[C@H](NC(=O)c1c[nH]c2ccc(-c3ccc4nc(NC(=O)C5CC5)sc4c3)cc12)c1ccc(F)cc1 [Compound 30]	< 1 nM	10 to 100 nM
C[C@H](NC(=O)c1c[nH]c2ccc(-c3ccc4nc(NC(=O)C5CC5)[nH]c4c3)cc12)c1cccc(F)c1 [Compound 81]	100 to 1000 nM	10 to 100 nM
CC(C)n1cc(C(=O)N[C@@H](C)c2cccc(F)c2)c2cc(-c3ccc4c(NC(=O)C5CC5)n[nH]c4c3)ccc21 [Compound 112]	1 to 10 nM	10 to 100 nM
COc1cccc([C@H](C)NC(=O)c2c[nH]c3ccc(-c4ccc5nc(NC(=O)C6CC6)sc5c4)cc23)c1 [Compound 38]	1 to 10 nM	10 to 100 nM
C[C@H](NC(=O)c1cn(C)c2ccc(-c3ccn4nc(NC(=O)N5CCC[C@H]5CO)nc4c3)cc12)c1cccc(F)c1 [Compound 164]	1 to 10 nM	100 to 1000 nM
Cc1ccc([C@H](C)NC(=O)c2cn(C)c3ccc(-c4ccn5nc(NC(=O)C6CC6)nc5c4)cc23)cc1 [Compound 120]	< 1 nM	1 to 10 nM
Cn1cc(C(=O)N2CCCC2c2cccc(F)c2)c2cc(-c3ccn4nc(NC(=O)C5CC5)cc4n3)ccc21 (centres unmarked) [Compound 185]	< 1 nM	1 to 10 nM
COc1ccc(CNC(=O)c2c[nH]c3ccc(-c4ccc5nc(NC(=O)C6CC6)sc5c4)cc23)cc1OC [Compound 26]	≥ 1000 nM	100 to 1000 nM
C[C@H](NC(=O)c1cn(C)c2ccc(-c3ccn4nc(NC(=O)C5CC5)nc4c3)cc12)c1ccc(F)c(F)c1 [Compound 182]	< 1 nM	1 to 10 nM
O=C(NCc1ccn[nH]1)c1c[nH]c2ccc(-c3ccc4nc(NC(=O)C5CC5)sc4c3)cc12 [Compound 85]	≥ 1000 nM	≥ 1000 nM
